Reference: patent publication US20250338851A1, “Boosted IPBC for Wet-State Bacterial Control” (Troy Technology II, Inc., priority 2021, published 2025)
Several values for one entry are separate records, joined by “and”; a condition that tells them apart may be missing. Identical values can stand only once. Like-named read-outs stand apart in the source and are kept apart here. Residues, ends and D or L forms follow the SMILES beside them. *: point of attachment. βNA = c1ccc2cc(N*)ccc2c1

Columns and labels:
Format in all cases: cell-based
[1] = system: bacterial consortium: Alcaligenes faecalis (ATCC #25094), Enterobacter aerogenes (ATCC #13048), Escherichia coli (ATCC #11229), Pseudomonas aeruginosa (ATCC …); test: Bacterial challenge testing (standard); settings: for Improvement in the bacterial resistance of paint containing IPBC/ZnO: paint challenge testing (Table A9)
Experimental: Bacterial and fungal challenge testing was performed following Troy's standard challenge test procedure SOP MI-07. […] Where indicated, additional bacterial organisms were added to the inoculum such that each organism in the inoculum provided equal CFU. […] Fungal consortia were prepared on Malt Agar slants and diluted to 10^6 spores/mL using a hemocytometer to count before use. Each mixture was prepared shortly before each inoculation. Inoculations were performed by adding 0.5 mL to 50 g of the indicated test sample, giving either ˜10^6 CFU/g of bacteria or ˜10^4 spores/g of fungi per challenge. Viability readings were performed at the indicated intervals following each challenge by applying a small amount of the test sample onto PCA (for bacteria) or Malt Agar (for fungus). Bacterial plates were then incubated at 32° C. for 3-5 days, and Malt Agar plates were incubated for 1 week at 28° C. before reading. Viability plates were evaluated with a semi-quantitative scale. This scale estimates the approximate CFU/g by visual assessment of the colony density along the streak lines. Readings are recorded as the average of two duplicate semi-quantitative readings from “0” to “4.” Samples were mixed before every viability reading and after every inoculation.
(§1) Challenge test scoring was done by the weighted sum of squares for each of the twelve data points collected for each test sample. The weighting was done proportional to the streak day, with day 1 weighted at 10%, day 2 weighted at 20%, and day 3 weighted at 70%. The sum of all 12 values is then taken and divided by the score of the unprotected sample to achieve the total growth score. The reported “weighted performance” score is 1 minus the growth score.

[2] = system: Pseudomonas aeruginosa (ATCC #10145); test: NPN uptake assay (membrane permeability); settings: 1% w/v solutions
Experimental: The NPN uptake assay was performed roughly as previously described. See Helander I. M., Mattila-Sandholm T., Fluorometric assessment of gram-negative bacterial permeabilization, J. Appl. Microbiol. […] Next, the cells were centrifuged (10,000 g, 5 minutes) washed twice with assay buffer (5 mM HEPES-KOH, 5 mM glucose, pH 7.2) and resuspended in assay buffer to OD600=1. 100 microliters of washed cells in assay buffer was then mixed with 100 microliters of assay buffer containing 20 μM NPN in a 96-well optical bottom black plate (Thermo). Two microliters of the test substances were then added, briefly mixed, and then placed in a plate reader to monitor fluorescence (excitation 350 nm, emission 420 nm) at one minute intervals for 10 minutes. Controls containing no cells or water-only were included in the assay. NPN uptake was calculated using the formula below at each time point and averaged over all time-points and three replicates.

E. coli ATCC #11229 = test: Minimum inhibitory concentration testing (microbroth dilution) and synergy index; settings: 96 well microbroth dilution, MHB, 24 hours of incubation
Experimental: (§2) MICs were determined via microbroth dilution using the following specific test parameters:
(§3) Biocide dilutions were performed in 2-fold increments for each assay.
(§4) Synergy index (SI) scores were calculated according to the mass action equation below: […]
(§5) S.I.[MIC[A]in-blend/MIC[A]alone]+[MIC[B]in-blend/MIC[B]alone]
(§6) Combinations of ingredients were determined to be synergistic (S.I.<0.5), additive (S.I.>0.5 to 1), indifferent (S.I.>1 to <2) or antagonistic (S.I.>2), as defined by EUCAST guidelines. See European Committee for Antimicrobial Susceptibility Testing (EUCAST) of the European Society of Clinical Microbiology and Infectious Diseases (ESCMID). EUCAST Definitive Document E.Def 1.2, May 2000: Terminology relating to methods for the determination of susceptibility of bacteria to antimicrobial agents, Clin. Microbiol. Infect. Off Publ. Eur. Soc. Clin. Microbiol. Infect. Dis. […] Microbiol.

[3] = system: Pseudomonas sp. Troy JZ103; test: as above; settings: 96 well microbroth dilution, MHB, 24 hours of incubation
Experimental: as §2, §3, §4, §5, §6

S. aureus ATCC #6538 = test: as above; settings: 96 well microbroth dilution, MHB, 24 hours of incubation
Experimental: as §2, §3, §4, §5, §6

[4] = system: Microbacterium sp. Troy JZ13; test: as above; settings: 96 well microbroth dilution, MHB, 24 hours of incubation
Experimental: as §2, §3, §4, §5, §6

[5] = system: P. aeruginosa ATCC #10145; test: as above
Experimental: as §2, §3, §4, §5, §6

Bacillus sp. Troy JZ14 = test: as above; settings: 96 well microbroth dilution, MHB, 24 hours of incubation
Experimental: as §2
(§7) Necessary organism dilutions via OD600 were calculated based on OD600 of 1.0 being equivalent to 8×10^8 CFU/mL. Biocide dilutions were performed in 2-fold increments for each assay.
as §4, §5
(§8) Combinations of ingredients were determined to be synergistic (S.I.<0.5), additive (S.I.>0.5 to 1), indifferent (S.I.>1 to <2) or antagonistic (S.I.>2), as defined by EUCAST guidelines. See European Committee for Antimicrobial Susceptibility Testing (EUCAST) of the European Society of Clinical Microbiology and Infectious Diseases (ESCMID). EUCAST Definitive Document E.Def 1.2, May 2000: Terminology relating to methods for the determination of susceptibility of bacteria to antimicrobial agents, Clin. Microbiol. Infect. Off Publ. Eur. Soc. Clin. Microbiol. Infect. Dis. 6, 503-508 (2000); Helander I. M., Mattila-Sandholm T., Fluorometric assessment of gram-negative bacterial permeabilization, J. Appl. Microbiol. 88:213-219 (2000).

[6] = system: Burkholderia sp. Troy JZ2; test: as above
Experimental: as §2, §7, §4, §5, §8

[7] = system: bacterial consortium: Alcaligenes faecalis, Enterobacter aerogenes, Escherichia coli, Pseudomonas aeruginosa, Staphylococcus aureus, Microbacterium …; test: Bacterial challenge testing (industrial strength)
Description: Where industrial strength inoculations are indicated, bacterial challenge testing organisms were Alcaligenes faecalis (ATCC #25094), Enterobacter aerogenes (ATCC #13048), Escherichia coli (ATCC #11229), Pseudomonas aeruginosa (ATCC #10145), Staphylococcus aureus (ATCC #6538), Microbacterium paraoxydans (Troy Isolate), Burkholderia cenocepacia (Troy Isolate), Citrobacter werkmanii (Troy Isolate), and Acinetobacter sp. (Troy Isolate). All bacteria were blended from separate overnight cultures grown in Tryptic Soy Broth (TSB) and mixed at equal CFU via OD600 measurements, then diluted to OD600=7 (˜10^9 CFU/mL) to create the final bacterial consortium. Each mixture was prepared shortly before each inoculation. Inoculations were performed by adding […] to 50 g of the indicated test sample to give ˜10^7 CFU/g per inoculation. Viability readings were performed at the indicated intervals following each challenge by applying a small amount of the test sample onto PCA. Plates were then incubated at 32° C. for 3-5 days before being evaluated with a semi-quantitative scale. This scale estimates the approximate CFU/g by visual assessment of the colony density along the streak lines. Readings are recorded as the average of two duplicate semi-quantitative readings from “0” to “4.” Samples were mixed before every viability reading and after every inoculation.
as §1

E. aerogenes ATCC #13048 = test: Minimum inhibitory concentration testing (microbroth dilution) and synergy index; settings: 96 well microbroth dilution, MHB, 24 hours of incubation
Experimental: as §2, §3, §4, §5, §6

[8] = system: Pseudomonas aeruginosa (ATCC #10145); test: Kill curve; settings: for Kill curve CFU/mL: 0.2%
Experimental: Overnight cultures of Pseudomonas aeruginosa (ATCC #10145) growing in Tryptic Soy Broth were diluted to OD600=0.7 in Mueller Hinton Broth containing the indicated level of test compound. Samples containing IPBC were dosed with Polyphase PW40 (40% IPBC). Samples containing ZnO were dosed from a 50% ZnO dispersion (“1678-54”). Time points were collected by adding 1 mL of the sample into 9 mL of Dey-Engley Neutralizing Broth and performing a serial dilution in 1× Butterfield's Phosphate Buffer. Counts were obtained from pour plates in Tryptic Soy Agar after overnight incubation at 35° C.

[9] = system: Pseudomonas aeruginosa (ATCC #10145); test: Growth curves (OD600)
Experimental: To generate growth curves, overnight cultures of Pseudomonas aeruginosa (ATCC #10145) from Plate Count Agar were lifted and resuspended in dH2O and adjusted to OD600=0.01 with sterile Mueller Hinton Broth (MHB). This culture was distributed into wells of an uncovered 96-well plate with the indicated biocides. The OD600 was then measured initially and then every 30′ for 16 hours at 37° C. with constant double orbital shaking. Due to the opacity of the samples dosed with some test compounds, the curves were generated by background subtracting from wells containing sterile MHB and then subtracted from their initial (t=0) measurement.

[10] = system: Pseudomonas aeruginosa (ATCC #10145); test: Checkerboard assay; settings: alone, 100-500 ppm; 24 hours of incubation
Experimental: The checkerboard assay was performed by separately dosing Polyphase PW40 (40% IPBC) and a 20% nanoparticle ZnO dispersion (Sigma #721077) into 100 microliters of Mueller Hinton Broth containing ˜1.0*10^5 CFU/mL of Pseudomonas aeruginosa (ATCC #10145). The plate was then incubated overnight at 37° C. with constant double orbital shaking. The next day, the dispersions were allowed to settle on the bench for 2 hours and the plate was photographed. Growth in this assay was defined as the turbidity of the supernatant.

[11] = 96 well microbroth dilution, MHB, 24 hours of incubation
[12] = Interior Paint #1, lowest concentration free of detectable bacterial growth 7 days following the 4th inoculation
[13] = Escherichia coli, ATCC11229, read-out: MIC
[14] = Staphylococcus aureus, ATCC6538, read-out: MIC
[15] = Klebsiella aerogenes, ATCC13048, read-out: MIC
[16] = Pseudomonas aeruginosa, ATCC10145, 24 h
[17] = Joint Compound, lowest concentration free of detectable bacterial growth 7 days following the 4th inoculation
[18] = control, without PAβN (FIG. 1C)

## CC(=O)OCC(COC(C)=O)OC(C)=O [Triacetin]
[1]
  Improvement in the bacterial resistance of paint containing IPBC/ZnO: some improvement

## CCCCCCOCCOCCO [Hexyl Carbitol]
[2]
  Membrane disruption potential against Pseudomonas (NPN assay): highest membrane disruption potential
E. coli ATCC #11229
  MIC: 11857 ppm
[3]
  MIC: 5929 ppm
S. aureus ATCC #6538
  MIC: 11857 ppm
[4]
  MIC: 1482 ppm
[5]; [11]
  MIC: 11856 ppm
[1]
  Improvement in the bacterial resistance of paint containing IPBC/ZnO: highly similar performance as 1,2-hexanediol
Bacillus sp. Troy JZ14
  MIC: 4447 ppm
[6]; [11]
  MIC: 1853 ppm

## CC(C)C(=O)OCC(C)(C)C(O)C(C)C (stereo not drawn) [Texanol]
[2]
  Membrane disruption potential against Pseudomonas (NPN assay): highest membrane disruption potential

## CCCCC(O)CO (stereo not drawn) [1,2-hexanediol]
[7]; [12]
  Pass Level: Not Effective
  Pass Level (ppm a.i.): > 12,000 ppm a.i.
E. coli ATCC #11229; [13]
  MIC: 6000 µg/mL
[3]; Pseudomonas, read-out: MIC
  MIC: 5000 µg/mL
S. aureus ATCC #6538; [14]
  MIC: 24000 µg/mL
E. aerogenes ATCC #13048; [15]
  MIC: 10000 µg/mL
[4]; read-out: MIC
  MIC: 6000 µg/mL
[5]; [16]
  MIC: 6000 µg/mL
[1]; [17]
  Pass Level: 1.2 % w/w
  Pass Level (ppm a.i.): 11,880 ppm a.i.
[8]; 1,2-hexanediol added to IPBC/ZnO (FIG. 5)
  Killing of Pseudomonas (kill curve): fully capable of killing Pseudomonas
Bacillus sp. Troy JZ14; Bacillus, read-out: MIC
  MIC: 10000 µg/mL
[6]; Burkholderia, 24 h
  MIC: 5000 µg/mL

## N=C(N)NCCC[C@H](NC(=O)[C@@H](N)Cc1ccccc1)C(=O)Nc1ccc2ccccc2c1 [PAβN, phenylalanine-arginine beta-napthylamide] (H-Phe-Arg-βNA)
[9]; 0.125-0.5 mM PAβN alone, 16 hours at 37° C.
  Impact on Pseudomonas growth: minimal impact

## [Cl-].[Cl-].[Mg+2] [MgCl2]
[9]; [18]
  Pseudomonas growth: no Pseudomonas inhibition

## [O]=[Zn] [ZnO, zinc oxide]
[7]; paint, 2.5% w/w (10,000 ppm), 7 days after challenge
  Kill of the inoculum: complete kill
E. coli ATCC #11229
  MIC: 2400 ppm
[3]
  MIC: 3400 ppm
S. aureus ATCC #6538
  MIC: 250 ppm
E. aerogenes ATCC #13048
  MIC: 2400 ppm
[4]
  MIC: 3206 ppm
[5]; [11]
  MIC: ≥2400 ppm
[8]; 0 hrs
  Kill curve CFU/mL: 5.40E+06 CFU/mL and 7.00E+06 CFU/mL
[8]; 2 hrs
  Kill curve CFU/mL: 7.10E+06 CFU/mL and 7.30E+06 CFU/mL
[8]; 24 hrs
  Kill curve CFU/mL: 1.33E+10 CFU/mL and 1.45E+10 CFU/mL
[8]; 48 hrs
  Kill curve CFU/mL: 4.90E+09 CFU/mL and 3.80E+09 CFU/mL
Bacillus sp. Troy JZ14
  MIC: 3212 ppm
[6]; [11]
  MIC: 2000 ppm

## CCCCCCOCCO [Hexyl Cellosolve]
[2]
  Membrane disruption potential against Pseudomonas (NPN assay): highest membrane disruption potential

## CCCCNC(=O)OCC#CI [IPBC, 3-iodoprop-2-yn-1-yl butylcarbamate]
[10]
  Turbidity of wells (growth): turbid
E. coli ATCC #11229; [13]
  MIC: 2400 µg/mL
[3]; Pseudomonas, read-out: MIC
  MIC: 300 µg/mL
S. aureus ATCC #6538; [14]
  MIC: 450 µg/mL
E. aerogenes ATCC #13048; [15]
  MIC: 1000 µg/mL
[4]; read-out: MIC
  MIC: 11 µg/mL
[5]; [16]
  MIC: ≥ 400 µg/mL
[8]; 0 hrs
  Kill curve CFU/mL: 5.40E+06 CFU/mL and 7.00E+06 CFU/mL
[8]; 2 hrs
  Kill curve CFU/mL: 7.10E+06 CFU/mL and 7.30E+06 CFU/mL
[8]; 24 hrs
  Kill curve CFU/mL: 1.33E+10 CFU/mL and 1.45E+10 CFU/mL
[8]; 48 hrs
  Kill curve CFU/mL: 4.90E+09 CFU/mL and 3.80E+09 CFU/mL
[9]; 400 ppm IPBC (0.1% w/w Polyphase PW40) with ≥0.25 mM PAβN, 16 hours
  Pseudomonas growth: complete growth inhibition
[9]; 400 ppm alone, 16 hours
  Pseudomonas growth: growth
[9]; IPBC with PAβN in the presence of 1 mM MgCl2
  Pseudomonas growth: weaker IPBC potentiation
[9]; [18]
  Pseudomonas growth: no Pseudomonas inhibition
Bacillus sp. Troy JZ14; Bacillus, read-out: MIC
  MIC: 9 µg/mL
[6]; Burkholderia, 24 h
  MIC: 63 µg/mL
